From patent US8901118B2, “Compounds and methods for kinase modulation, and indications therefor” (Plexxikon Inc., priority 2010, dated 2014) come the findings set out here.

One data set addresses c-Kit kinase (Homo sapiens, UniProt P10721). Briefly: c-Kit kinase biochemical activity assay (AlphaScreen, biotin-(E4Y)10 phosphorylation). Conditions: 100 μM ATP; read-out: Biochemical Inhibition IC50 Kit. On the procedure: Assays for biochemical and cell based activity are known in the art, for example, U.S. Patent Application Publication Number 2009/0076046, the disclosure of which is hereby incorporated by reference as it relates to such assays. For example, in one assay the biochemical activity IC50 values are determined with respect to inhibition of c-Kit kinase activity, where inhibition of phosphorylation of a peptide substrate is measured as a function of compound concentration. Compounds to be tested are dissolved in DMSO to a concentration of 20 mM. These are diluted 30 μL into 120 μL of DMSO (4 mM) and 1 μL is added to an assay plate. These are then serially diluted […] (50 μL to 100 μL DMSO) for a total of 8 points. Plates are prepared such that each kinase reaction is 20 μL in 1× kinase buffer (25 mM HEPES, pH 7.5, 2 mM MgCl2, 2 mM MnCl2, 0.01% Tween-20, 1 mM DTT, 0.01% BSA), 5% DMSO and 100 μM ATP. Substrate is 30 nM biotin-(E4Y) 10 (Millipore). C-kit kinase (obtained from Millipore (#14-559) or is prepared as described in U.S. Patent Application Publication Number 2009/0076046, the disclosure of which is hereby incorporated by reference as it relates to this assay) is at 0.75 ng per sample. After incubation of the kinase reaction for 1 hour at room temperature, 5 μL of donor beads (Streptavidin coated beads (Perkin Elmer Life Science) final concentration 10 μg/mL) in stop buffer (25 mM Hepes pH 7.5, 100 mM EDTA, 0.01% BSA) is added, the sample is mixed and incubated for 20 minutes at room temperature before adding 5 μL of acceptor beads (PY20 coated beads (Perkin Elmer Life Science) final concentration 10 μg/mL) in stop buffer. The samples are incubated for 60 minutes at room temperature and the signal per well is read on Envision reader. Phosphorylated substrate results in binding of the PY20 antibody and association of the donor and acceptor beads such that signal correlates with kinase activity. The signal vs. compound concentration is used to determine the IC50.

Data set [1] is described as follows: Relative solubility by turbidity in aqueous buffers (pH 1.5, 4.5, 6.8, 7.4). The data set is classed as physicochemical. Conditions: for turbidity threshold (L, M, H) 1.4: pH 1.5 (SGF); for turbidity threshold (L, M, H) 4.5: pH 4.5 (SIF); for turbidity threshold (L, M, H) 6.8: pH 6.8 (SIF); for turbidity threshold (L, M, H) 7.4: pH 7.4 (HEPES). On the procedure: As an indication of relative solubility, the turbidity of compounds in aqueous solutions is assessed. To assess possible compound properties in different physiological compartments, such as stomach, intestine, and blood, a series of aqueous buffers with varying pH is used. Thus each compound is diluted into four different physiologically relevant buffers and solution turbidity is measured by spectrophotometry.
Compounds are dissolved at a concentration of 25 mM in dimethyl sulfoxide, then serially diluted 1:1 into a 96 well plate, diluting 10 times in pure dimethyl sulfoxide, with the final well of each row a dimethyl sulfoxide blank. In an assay plate, 99 μL of appropriate buffer is added to each well, and 1 μL of each sample dilution is added to the buffer, achieving a range of final total concentrations in aqueous solutions having different pH. The buffers used are Simulated Gastric Fluid (SGF-pH 1.5) 0.5M NaCl, pH 1.5; Simulated Intestinal fluid (SIF-pH 4.5 and pH 6.8) 0.05M NaH2PO4, pH 4.5 and 6.8; and Hepes Buffer (HEPES-pH 7.4) 10 mM HEPES, 150 mM NaCl, pH 7.4. Control compounds pyrene, estriol and propranolol HCl are also assessed. Plates are spun and then mixed for 1 minute, and the absorbance is read using a Tecan Safire II to read wavelengths in the visible range (490, 535, and 650 nm) at four locations per well, reflecting the degree of turbidity present. The average optical density for each wavelength in each well is graphed vs. compound concentration, and the concentration at which the curve crosses a threshold O.D. of 0.01 for each wavelength is reported as the endpoint turbidity assay result. The average of the three wavelengths is used to compare turbidity of compounds.

In the next data set the target is CYP3A4(BQ) (Homo sapiens, UniProt P08684). Kind of data set: CYP3A4(BQ) inhibition. The data set is classed as in vitro ADME. The settings on record: CYP3A4, substrate BQ; read-out: Cyp IC50 3A4(BQ). On the procedure: CYP (Cytochrome P450) enzymes are the major drug metabolizing enzymes present in the liver. The inhibition of CYP enzyme activity (IC50) for each of CYP1A2, CYP2C19, CYP2C9, CYP2D6, CYP3A4(BFC) and CYP3A4(BQ) is determined for compounds, where inhibition of metabolism of a known substrate leads to a decrease in the fluorescence of the metabolized product. The fluorescence of the product is monitored as a function of compound concentration. Compounds are dissolved in DMSO to a concentration of 100 mM. These are diluted 1 μL into 82 μL of acetonitrile. An 11 μL aliquot of this solution is then added to 204 μL of cofactor mix (1.3% NADPH Regeneration system Solution A, 1.04% NADPH Regeneration system Solution B from BD Biosciences, 5% acetonitrile and 0.05% DMSO). These are then serially diluted 1:1 (160 μL to 160 μL co-factor mix) for a total of 10 points. A 10 μL aliquot of this final mixture is dispensed into 384 well assay plates and incubated for 10 minutes at 37° C. […] Assay plates are incubated at 37° C. (CYP1A2-15 min; CYP2C9-45 min; CYP2C19, 2D6 and 3A4-30 min) and read in a Tecan Safire 2 plate reader (CYP1A2, 2C19 and 3A4 409 ex/460 em; CYP2C9 and 2D6 409 ex/530 em). The signal versus compound concentration is used to determine the IC50. The enzymes and substrates for this assay are obtained from BD Biosciences.

Each structure is given as a SMILES string.

CYP3A4(BQ), sequence (P08684 whole entry): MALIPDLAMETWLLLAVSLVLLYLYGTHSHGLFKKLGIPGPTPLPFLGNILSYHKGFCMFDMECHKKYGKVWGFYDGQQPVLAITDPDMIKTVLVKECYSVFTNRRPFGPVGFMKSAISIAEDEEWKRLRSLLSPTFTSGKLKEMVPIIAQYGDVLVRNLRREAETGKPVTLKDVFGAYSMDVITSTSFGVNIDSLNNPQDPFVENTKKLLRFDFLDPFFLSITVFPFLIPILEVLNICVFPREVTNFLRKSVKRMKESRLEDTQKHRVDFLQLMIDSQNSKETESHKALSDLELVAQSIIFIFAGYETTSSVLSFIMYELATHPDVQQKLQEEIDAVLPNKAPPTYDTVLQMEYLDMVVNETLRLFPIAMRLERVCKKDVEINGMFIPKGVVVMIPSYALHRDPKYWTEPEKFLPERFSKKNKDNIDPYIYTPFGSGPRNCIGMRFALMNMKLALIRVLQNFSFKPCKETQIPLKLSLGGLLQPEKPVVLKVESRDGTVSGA
c-Kit kinase, sequence (P10721 26-976): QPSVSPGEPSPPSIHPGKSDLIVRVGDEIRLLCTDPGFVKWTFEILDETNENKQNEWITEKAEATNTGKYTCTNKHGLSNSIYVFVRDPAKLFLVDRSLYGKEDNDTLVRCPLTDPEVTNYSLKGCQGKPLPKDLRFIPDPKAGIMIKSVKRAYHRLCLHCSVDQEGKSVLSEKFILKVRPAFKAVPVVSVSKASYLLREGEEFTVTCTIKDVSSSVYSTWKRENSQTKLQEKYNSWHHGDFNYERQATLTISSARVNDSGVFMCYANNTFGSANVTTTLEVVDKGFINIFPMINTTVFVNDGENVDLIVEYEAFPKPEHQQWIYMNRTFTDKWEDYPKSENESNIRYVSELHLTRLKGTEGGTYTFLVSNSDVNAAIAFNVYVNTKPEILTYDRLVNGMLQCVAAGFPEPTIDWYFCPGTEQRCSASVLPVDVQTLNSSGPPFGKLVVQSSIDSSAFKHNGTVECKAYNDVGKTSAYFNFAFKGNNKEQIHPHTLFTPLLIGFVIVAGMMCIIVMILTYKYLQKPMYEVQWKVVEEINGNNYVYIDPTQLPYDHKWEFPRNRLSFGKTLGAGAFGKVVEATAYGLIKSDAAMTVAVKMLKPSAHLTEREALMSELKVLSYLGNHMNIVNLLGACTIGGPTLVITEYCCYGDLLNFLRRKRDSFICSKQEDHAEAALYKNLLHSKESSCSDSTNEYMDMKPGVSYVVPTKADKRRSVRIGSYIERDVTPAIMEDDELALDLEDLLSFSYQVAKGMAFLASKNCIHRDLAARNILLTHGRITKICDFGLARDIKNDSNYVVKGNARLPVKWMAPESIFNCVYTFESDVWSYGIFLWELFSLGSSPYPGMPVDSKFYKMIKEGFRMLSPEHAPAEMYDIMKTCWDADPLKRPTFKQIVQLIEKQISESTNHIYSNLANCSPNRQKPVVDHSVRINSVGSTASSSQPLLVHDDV

For the compound `Cc1cnc2[nH]cc(Cc3cnc(Nc4ccc(F)cc4)nc3)c2c1` [Compound P-3010, (4-Fluoro-phenyl)-[5-(5-methyl-1H-pyrrolo[2,3-b]pyridin-3-ylmethyl)-pyrimidin-2-yl]-amine], the IC50 on c-Kit kinase was under 100 nM. In addition, in data set [1], the “turbidity threshold (L, M, H) 1.4” value was “H (high solubility if the threshold concentration is >250 μm)”; the “turbidity threshold (L, M, H) 4.5” value was “L (low solubility if the threshold concentration is <31.3 μM)”; the “turbidity threshold (L, M, H) 6.8” value was “L (low solubility if the threshold concentration is <31.3 μM)”; the “turbidity threshold (L, M, H) 7.4” value was “M (moderate solubility if the threshold concentration is 31.3 μM to 250 μM)”. Besides, at CYP3A4(BQ), the IC50 is over 10000 nM.

For the compound `Clc1ccc(Nc2ncc(Cc3c[nH]c4ncc(Cl)cc34)cn2)cc1` [Compound P-3011, (4-Chloro-phenyl)-[5-(5-chloro-1H-pyrrolo[2,3-b]pyridin-3-ylmethyl)-pyrimidin-2-yl]-amine], the IC50 is under 10 nM at c-Kit kinase and over 10000 nM at CYP3A4(BQ).

As for `Fc1ccc(Nc2ncc(Cc3c[nH]c4ncc(Cl)cc34)cn2)cc1` [Compound P-3012, [5-(5-Chloro-1H-pyrrolo[2,3-b]pyridin-3-ylmethyl)-pyrimidin-2-yl]-(4-fluoro-phenyl)-amine], on c-Kit kinase, the IC50 is under 10 nM. In data set [1], the “turbidity threshold (L, M, H) 1.4” value was “M (moderate solubility if the threshold concentration is 31.3 μM to 250 μM)”; the “turbidity threshold (L, M, H) 4.5” value is on record as “M (moderate solubility if the threshold concentration is 31.3 μM to 250 μM)”; the “turbidity threshold (L, M, H) 6.8” value is reported as “M (moderate solubility if the threshold concentration is 31.3 μM to 250 μM)”; the “turbidity threshold (L, M, H) 7.4” value was “M (moderate solubility if the threshold concentration is 31.3 μM to 250 μM)”. The half-maximal inhibitory concentration (IC50) on CYP3A4(BQ) was over 10000 nM.

`Fc1nc(NC2CCC(F)(F)CC2)ccc1Cc1c[nH]c2ncc(Cl)cc12` [Compound P-3013, [5-(5-Chloro-1H-pyrrolo[2,3-b]pyridin-3-ylmethyl)-6-fluoro-pyridin-2-yl]-(4,4-difluoro-cyclohexyl)-amine]: on c-Kit kinase, the IC50 is under 1000 nM. Further, in data set [1], the “turbidity threshold (L, M, H) 1.4” value is “L (low solubility if the threshold concentration is <31.3 μM)”; the “turbidity threshold (L, M, H) 4.5” value is recorded as “L (low solubility if the threshold concentration is <31.3 μM)”; the “turbidity threshold (L, M, H) 6.8” value is “L (low solubility if the threshold concentration is <31.3 μM)”; the “turbidity threshold (L, M, H) 7.4” value is on record as “L (low solubility if the threshold concentration is <31.3 μM)”. Also, the IC50 on CYP3A4(BQ) was over 10000 nM.

Regarding `Fc1ccccc1Nc1ncc(Cc2c[nH]c3ncc(Cl)cc23)cn1` [Compound P-3014, [5-(5-Chloro-1H-pyrrolo[2,3-b]pyridin-3-ylmethyl)-pyrimidin-2-yl]-(2-fluoro-phenyl)-amine], the IC50 on c-Kit kinase is under 100 nM. In data set [1], the “turbidity threshold (L, M, H) 1.4” value was “H (high solubility if the threshold concentration is >250 μm)”; the “turbidity threshold (L, M, H) 4.5” value is listed as “M (moderate solubility if the threshold concentration is 31.3 μM to 250 μM)”; the “turbidity threshold (L, M, H) 6.8” value is given as “M (moderate solubility if the threshold concentration is 31.3 μM to 250 μM)”; the “turbidity threshold (L, M, H) 7.4” value is “M (moderate solubility if the threshold concentration is 31.3 μM to 250 μM)”.

With `Clc1cnc2[nH]cc(Cc3cnc(Nc4ccccc4Cl)nc3)c2c1` [Compound P-3015, (2-Chloro-phenyl)-[5-(5-chloro-1H-pyrrolo[2,3-b]pyridin-3-ylmethyl)-pyrimidin-2-yl]-amine], at c-Kit kinase, the IC50 is under 1000 nM.

As for `CCc1ccc(Nc2ccc(C(=O)c3c[nH]c4ncnc(NCC(C)(C)O)c34)c(F)n2)cn1` [Compound P-4064, [6-[(6-ethyl-3-pyridyl)amino]-2-fluoro-3-pyridyl]-[4-[(2-hydroxy-2-methyl-propyl)amino]-7H-pyrrolo[2,3-d]pyrimidin-5-yl]methanone], the figures for the IC50 at c-Kit kinase and at CYP3A4(BQ) were under 100 nM and over 10000 nM, respectively.

For the compound `COc1ccc(Nc2ccc(C(=O)c3c[nH]c4ncnc(N5CCCCC5)c34)c(F)n2)cn1` [Compound P-4069, [2-fluoro-6-[(6-methoxy-3-pyridyl)amino]-3-pyridyl]-[4-(1-piperidyl)-7H-pyrrolo[2,3-d]pyrimidin-5-yl]methanone], the IC50 on c-Kit kinase was over 1000 nM; at CYP3A4(BQ), over 10000 nM.

For `CNc1ncnc2[nH]cc(C(=O)c3ccc(Nc4ccc(OC)nc4)nc3OC)c12` [Compound P-4085, [2-methoxy-6-[(6-methoxy-3-pyridyl)amino]-3-pyridyl]-[4-(methylamino)-7H-pyrrolo[2,3-d]pyrimidin-5-yl]methanone], on c-Kit kinase, the IC50 was under 1000 nM.

In the case of `CCc1ccc(Nc2ccc(C(=O)c3c[nH]c4ncnc(Nc5ccc(C)nc5)c34)c(F)n2)cn1` [Compound P-4086, [6-[(6-ethyl-3-pyridyl)amino]-2-fluoro-3-pyridyl]-[4-[(6-methyl-3-pyridyl)amino]-7H-pyrrolo[2,3-d]pyrimidin-5-yl]methanone], the IC50 on c-Kit kinase was under 1000 nM.

Turning to `O=C(c1ccc(Nc2ccc(C3CC3)nc2)nc1F)c1c[nH]c2ncnc(NCC(F)(F)F)c12` [Compound P-4090, [6-[(6-cyclopropyl-3-pyridyl)amino]-2-fluoro-3-pyridyl]-[4-(2,2,2-trifluoroethylamino)-7H-pyrrolo[2,3-d]pyrimidin-5-yl]methanone], the figures for the IC50 on c-Kit kinase and on CYP3A4(BQ) were under 1000 nM and over 10000 nM, respectively.

As to `Cc1ccc(Nc2ccc(C(=O)c3c[nH]c4ncnc(NCC5CC5)c34)c(F)n2)cn1` [Compound P-4113, [4-(cyclopropylmethylamino)-7H-pyrrolo[2,3-d]pyrimidin-5-yl]-[2-fluoro-6-[(6-methyl-3-pyridyl)amino]-3-pyridyl]methanone], the IC50 at c-Kit kinase is under 100 nM; at CYP3A4(BQ), over 10000 nM.

As for `COc1ccc(Nc2ccc(C(=O)c3c[nH]c4ncnc(NC5CC5)c34)c(F)n2)cn1` [Compound P-4126, [4-(cyclopropylamino)-7H-pyrrolo[2,3-d]pyrimidin-5-yl]-[2-fluoro-6-[(6-methoxy-3-pyridyl)amino]-3-pyridyl]methanone], the IC50 on c-Kit kinase is under 100 nM; at CYP3A4(BQ), 5000 to 10000 nM.
